Here are results for 20 molecules from patent US12180226B2, “Spirotricycle RIPK1 inhibitors and methods of uses thereof” (Merck Sharp & Dohme LLC, priority 2021, dated 2024).

pEC50: −log10 of the molar value.

This assay has as its target RIPK1 (recombinant GST-RIPK1 kinase domain, residues 1-327) (Homo sapiens (Human), UniProt Q13546). In words: RIPK1-ADP-Glo Enzymatic Assay. The following applies: ADP-Glo; 25 nM GST-RIPK1, 300 μM ATP; assay lower limit ~25 nM; read-out: RIPK1 V0 Ec50. The assay is classed as biochemical. In short, it runs like this:
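ADP-Glo luminescence read after 150 min kinase reaction (300 μM ATP, 3 μM dephosphorylated MBP) using 25 nM Sf21-made GST-kinase domain (1-327), preincubated 30 min with compound. HEPES pH 7.3, 1% DMSO; ten-point 1:3 series from 100000 nM, EC50 via four-parameter sigmoidal regression.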
(ADP-Glo turns the ADP formed in a reaction into a luminescent signal.)

Chain of RIPK1 (recombinant GST-RIPK1 kinase domain, residues 1-327) (Q13546 1-327): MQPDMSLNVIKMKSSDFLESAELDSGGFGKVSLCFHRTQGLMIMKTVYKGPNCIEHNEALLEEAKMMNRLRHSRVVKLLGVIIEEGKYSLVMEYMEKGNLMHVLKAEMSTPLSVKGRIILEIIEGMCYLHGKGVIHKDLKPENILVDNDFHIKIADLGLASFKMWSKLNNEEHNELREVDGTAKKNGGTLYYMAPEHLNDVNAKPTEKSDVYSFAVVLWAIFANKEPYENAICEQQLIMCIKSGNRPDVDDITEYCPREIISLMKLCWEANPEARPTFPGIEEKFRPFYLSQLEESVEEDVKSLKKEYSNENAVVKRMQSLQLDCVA

A word on the pEC50: it is the EC50 on a negative log10 scale, so that one unit is a factor of ten. For `O=C(c1ccc(F)cc1F)N1CCC2(CC1)O[C@@H]1CC[C@@H](c3cccc(F)c3)N1C2=O` [Example 6.114, (5′S,7a′R)-1-(2,4-difluorobenzene-1-carbonyl)-5′-(3-fluoro-phenyl)tetrahydro-3′H-spiro[piperidine-4,2′-pyrrolo[2,1-b] [1,3]oxazol]-3′-one], the negative-log EC50 (pEC50) was more than 7.60. With `N#Cc1ccc(N2CCC3(O[C@@H]4CC[C@@H](c5ccccc5)N4C3=O)C(F)C2)n2ncnc12` (stereo partly drawn) [Example 4.257, 5-[(5′S,7a′R)-3-fluoro-3′-oxo-5′-phenyltetrahydro-1H,3′H-spiro[piperidine-4,2′-pyrrolo[2,1-b] [1,3]oxazol]-1-yl][1,2,4]triazolo[1,5-a] pyridine-8-carbonitrile], the pEC50 is more than 7.60. Take `O=C(c1ccc(O)cc1F)N1CCC2(CC1)O[C@@H]1CC[C@@H](c3cc(F)cc(F)c3)N1C2=O` [Example 5.55, (5′S,7a′R)-5′-(3,5-difluoro-phenyl)-1-(2-fluoro-4-hydroxybenzoyl)tetrahydro-3′H-spiro[piperidine-4,2′-pyrrolo[2,1-b]oxazol]-3'-one]: the negative logarithm of the EC50 (pEC50) is 7.58. With `CC1CN(c2cccc3ncnn23)CCC12O[C@@H]1CC[C@@H](c3cc(F)cc(F)c3)N1C2=O` (stereo partly drawn) [Example 4.266, (5′S,7a′R)-5′-(3,5-difluorophenyl)-3-methyl-1-([1,2,4]triazolo[1,5-a]pyridin-5-yl)tetrahydro-3′H-spiro[piperidine-4,2′-pyrrolo[2,1-b] [1,3]oxazol]-3′-one] the figure was more than 7.60; with `O=C(c1ccc(F)cn1)N1CCC2(CC1)O[C@@H]1CC[C@@H](c3cc(F)cc(F)c3)N1C2=O` [Example 6.14, (5′S,7a′R)-5′-(3,5-difluorophenyl)-1-(5-fluoropyridine-2-carbonyl)tetrahydro-3′H-spiro[piperidine-4,2′-pyrrolo[2,1-b] [1,3]oxazol]-3′-one], 7.52. With `O=C(c1ccc(N2CCC3(CC2)O[C@@H]2CC[C@@H](c4ccccc4)N2C3=O)nc1)C(F)F` [Example 4.161, (5′S,7a′R)-1-[5-(difluoroacetyl)pyridin-2-yl]-5′-phenyltetrahydro-3′H-spiro[piperidine-4,2′-pyrrolo[2,1-b] [1,3]oxazol]-3′-one] the figure was more than 7.60. `O=C(c1cccc(F)c1F)N1CCC2(CC1)O[C@@H]1CC[C@@H](c3cc(F)cc(F)c3)N1C2=O` [Example 5.3, (5′S,7a′R)-1-(2,3-difluoro-benzene-1-carbonyl)-5′-(3,5-difluorophenyl)tetra-hydro3′H-spiro[piperidine-4,2′-pyrrolo[2,1-b][1,3]oxazol]-3′-one]: the pEC50 was more than 7.60.

With `CC1CC2(CCN1C(=O)c1ccccc1)O[C@@H]1CC[C@@H](c3cc(F)cc(F)c3)N1C2=O` (stereo partly drawn) [Example 6.105, (4R,5′S,7a′R)-1-(benzenecarbonyl)-5′-(3,5-difluorophenyl)-2-methyltetrahydro-3′H-spiro[piperidine-4,2′-pyrrolo[2,1-b] [1,3]oxazol]-3′-one], the pEC50 was 6.08. With `N#Cc1ccc(N2CCC3(CC2)O[C@@H]2CC[C@@H](c4cc(F)cc(F)c4)N2C3=O)cc1` [Example 4.68, 4-[(5′S,7a′R)-5′-(3,5-difluorophenyl)-3′-oxotetrahydro-1H,3′H-spiro[piperidine-4,2′-pyrrolo[2,1-b] [1,3]oxazol]-1-yl]benzonitrile] the figure was more than 7.60. Take `O=C1N2[C@@H](CC[C@H]2c2cc(F)cc(F)c2)OC12CCN(S(=O)(=O)c1ccccc1)CC2` [Example 8.1, (5′S,7a′R)-5′-(3,5-Difluorophenyl)-1-(phenylsulfonyl)tetrahydro-3′H-spiro[piperidine-4,2′-pyrrolo[2,1-b]oxazol]-3′-one]: the pEC50 was 6.14. For `COc1ccc([C@@H]2CC[C@H]3OC4(CCN(C(=O)c5ccccc5)CC4)C(=O)N32)cc1` [Example 17.8, (5′S,7a′R)-1-benzoyl-5′-(4-methoxyphenyl)tetrahydro-3′H-spiro[piperidine-4,2′-pyrrolo[2,1-b]oxazol]-3′-one] the value was 7.31; for `Cc1ncc(C(=O)N2CCC3(CC2)O[C@@H]2CC[C@@H](c4cc(F)cc(F)c4)N2C3=O)cn1` [Example 6.77, (5′S,7a′R)-5′-(3,5-difluorophenyl)-1-(2-methylpyrimidine-5-carbonyl)tetrahydro-3′H-spiro[piperidine-4,2′-pyrrolo[2,1-b] [1,3]oxazol]-3′-one], 6.24. On to `O=C1N2[C@@H](CC[C@H]2c2ccccc2F)OC12CCN(c1cccc3ncnn13)CC2` [Example 4.253, (5′S,7a′R)-5′-(2-fluorophenyl)-1-([1,2,4]triazolo[1,5-a]pyridin-5-yl)tetrahydro-3′H-spiro[piperidine-4,2′-pyrrolo[2,1-b] [1,3]oxazol]-3′-one], for which the negative-log EC50 (pEC50) is more than 7.60. With `COc1ccc(N2CCC3(CC2)O[C@@H]2CC[C@@H](c4ccccc4)N2C3=O)n2ncnc12` [Example 19.8, (5′S,7a′R)-1-(8-methoxy[1,2,4]triazolo [1,5-a]pyridin-5-yl)-5′-phenyltetrahydro-3′H-spiro[piperidine-4,2′-pyrrolo[2,1-b][1,3]oxazol]-3′-one] the figure was 6.40. With `O=C1N2[C@@H](CC[C@H]2c2ccccc2F)OC12CCN(c1ccnc(-c3cnn(C(F)F)c3)c1)CC2` [Example 10.4, (5′S,7a′R)-1-{2-[1-(difluoromethyl)-1H-pyrazol-4-yl]pyridin-4-yl}-5′-(2-fluorophenyl)tetrahydro-3′H-spiro[piperidine-4,2′-pyrrolo[2,1-b][1,3]oxazol]-3′-one] the figure was more than 7.60; with `O=C1N2C(CCC2c2c(F)cccc2F)OC12CCN(c1ccnc3ccnn13)CC2` (centres unmarked) [Example 20.8, 5′-(2,6-difluorophenyl)-1-(pyrazolo[1,5-a]pyrimidin-7-yl)tetrahydro-3′H-spiro[piperidine-4,2′-pyrrolo[2,1-b][1,3]oxazol]-3′-one], more than 7.60; with `O=C(c1ccccc1)N1CCC2(CC1)O[C@@H]1CC[C@@H](c3cncc(F)c3)N1C2=O` [Example 1.4, (5′S,7a′R)-1-(benzenecarbonyl)-5′-(5-fluoropyridin-3-yl)tetrahydro-3′H-spiro[piperidine-4,2′-pyrrolo[2,1-b] [1,3]oxazol]-3′-one], 6.92. For the molecule `Cc1cc(N2CCC3(CC2)O[C@@H]2CC[C@@H](c4ccccc4)N2C3=O)nc(C#N)n1` [Example 4.2, 4-methyl-6-[(5′S,7a′R)-3′-oxo-5′-phenyltetrahydro-1H,3′H-spiro[piperidine-4,2′-pyrrolo[2,1-b] [1,3]oxazol]-1-yl]pyrimidine-2-carbonitrile], the pEC50 is more than 7.60. With `Cc1cc(N2CCC3(CC2)O[C@@H]2CC[C@@H](c4ccccc4)N2C3=O)ncc1[N+](=O)[O-]` [Example 4.207, (5′S,7a′R)-1-(4-methyl-5-nitropyridin-2-yl)-5′-phenyltetrahydro-3′H-spiro[piperidine-4,2′-pyrrolo[2,1-b] [1,3]oxazol]-3′-one] the figure was more than 7.60; with `O=C1N2C(=NC13CCN(c1cc(-c4cnn(C(F)F)c4)ncn1)CC3)CC[C@H]2c1cc(F)cc(F)c1` [Example 10.3, (S)-1-(6-(1-(difluoromethyl)-1H-pyrazol-4-yl)pyrimidin-4-yl)-5′-(3,5-difluorophenyl)-6′,7′-dihydro-3′H,5′H-spiro[piperidine-4,2′-pyrrolo[1,2-a]imidazol]-3′-one], 6.45.
